Biological target: T1, HMG-CoA reductase (Rattus norvegicus, UniProt P51639)
T1 sequence (P51639 1-887): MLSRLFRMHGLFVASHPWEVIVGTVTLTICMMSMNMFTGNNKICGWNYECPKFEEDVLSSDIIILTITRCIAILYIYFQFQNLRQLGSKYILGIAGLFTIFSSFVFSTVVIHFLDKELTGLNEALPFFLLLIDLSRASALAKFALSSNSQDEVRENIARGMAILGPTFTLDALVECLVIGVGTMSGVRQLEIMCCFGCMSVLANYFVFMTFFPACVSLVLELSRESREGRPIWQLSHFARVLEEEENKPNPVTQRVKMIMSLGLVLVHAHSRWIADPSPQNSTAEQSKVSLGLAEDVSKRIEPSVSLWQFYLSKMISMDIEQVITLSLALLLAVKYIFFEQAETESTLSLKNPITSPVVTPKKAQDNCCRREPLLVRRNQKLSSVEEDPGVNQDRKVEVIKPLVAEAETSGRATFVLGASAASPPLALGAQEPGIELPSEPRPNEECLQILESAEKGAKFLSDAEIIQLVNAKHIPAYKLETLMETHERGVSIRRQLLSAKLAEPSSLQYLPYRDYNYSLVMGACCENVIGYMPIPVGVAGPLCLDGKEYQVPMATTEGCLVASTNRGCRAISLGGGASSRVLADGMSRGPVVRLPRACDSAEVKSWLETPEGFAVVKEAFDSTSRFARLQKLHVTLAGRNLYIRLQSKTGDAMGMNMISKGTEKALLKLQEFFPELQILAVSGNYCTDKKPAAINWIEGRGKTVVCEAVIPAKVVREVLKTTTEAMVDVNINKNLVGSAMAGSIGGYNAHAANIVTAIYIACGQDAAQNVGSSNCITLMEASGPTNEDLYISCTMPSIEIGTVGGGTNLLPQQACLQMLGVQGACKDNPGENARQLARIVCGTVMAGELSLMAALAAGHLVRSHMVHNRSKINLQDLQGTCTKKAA
Experiment: intrinsic HMG-CoA reductase inhibition, in vitro protocol of J. Med. Chem. 28, 347-358 (1985)
Format: biochemical
Details: IC50 of test compound compared with that of compactin (mevastatin) determined simultaneously; compactin assigned 100
Experimental: The intrinsic HMG-CoA reductase inhibition activity of the claimed compounds is measured in the in vitro protocol published in J. Med. Chem. 28, p. 347-358 (1985).
For estimation of relative inhibitory potencies, mevastatin (compactin) was assigned a value of 100 and the IC50 value of the test compound was compared with that of compactin determined simultaneously in the published in vitro protocol.

Row | Relative Potency | Structure (SMILES)
1 | 125 | CCC(C)(C)C(=O)O[C@H]1C[C@H](CN)C=C2C=C[C@H](C)[C@H](CC[C@@H](O)C[C@@H](O)CC(=O)O)[C@H]21 [Example 1]
2 | 167 | CCC(C)(C)C(=O)O[C@H]1C[C@H](CNCc2ccccc2)C=C2C=C[C@H](C)[C@H](CC[C@@H]3C[C@@H](O)CC(=O)O3)[C@H]21 [Example 2, 6(R)-[2-[8(S)-(2,2-dimethylbutyryloxy)-2(S)-methyl-6(S)-benzylaminomethyl-1,2,6,7,8, 8a(R)-hexahydronaphthyl-1(S)]ethyl]-4(R)-hydroxy-3,4,5,6-tetrahydro-2H-pyran-2-one]
3 | 300 | CCC(C)(C)C(=O)O[C@H]1C[C@H](CNC(=O)c2ccccc2)C=C2C=C[C@H](C)[C@H](CC[C@@H]3C[C@@H](O)CC(=O)O3)[C@H]21 [Example 3, 6(R)-[2-[8(S)-(2,2-dimethylbutyryloxy)-2(S)-methyl-6(S)-phenylcarbonylaminomethyl-1,2,6,7,8,8a(R)-hexahydronaphthyl-1(S)]ethyl]-4(R)-hydroxy-3,4,5,6-tetrahydro-2H-pyran-2-one]
4 | 294 | CCC(C)(C)C(=O)O[C@H]1C[C@H](CNC(=O)Nc2ccccc2)C=C2C=C[C@H](C)[C@H](CC[C@@H]3C[C@@H](O)CC(=O)O3)[C@H]21 [Example 4, 6(R)-[2-[8(S)-(2,2-dimethylbutyryloxy)-2(S)-methyl-6(S)-phenylureidomethyl-1,2,6,7,8,8a(R)-hexahydronaphthyl-1(S)]ethyl]-4(R)-hydroxy-3,4,5,6-tetrahydro-2H-pyran-2-one]
5 | 500 | CCC(C)(C)C(=O)O[C@H]1C[C@H](CNC(=O)NCc2ccccc2)C=C2C=C[C@H](C)[C@H](CC[C@@H]3C[C@@H](O)CC(=O)O3)[C@H]21 [Example 5, 6(R)-[2-[8(S)-(2,2-dimethylbutyryloxy)-2(S)-methyl-6(S)-benzylureidomethyl-1,2,6,7,8,8a(R)-hexahydronaphthyl-1(S)]ethyl]-4(R)-hydroxy-3,4,5,6-tetrahydro-2H-pyran-2-one]

From patent US4857546A, “Novel HMG-CoA reductase inhibitors” (Merck & Co., Inc., priority 1988, dated 1989)
